Each molecule was assayed against T1, MMP-2 (Homo sapiens, UniProt P08253) (assay: In vitro MMP inhibition, IC50 determination (fluorogenic substrate I)). Conditions: value in parentheses; read-out: MMP-2 (IC-50).
T1 construct: made in house; host or cells: MMP-2-transfected p2AHT2 cells
T1 sequence (P08253 110-660): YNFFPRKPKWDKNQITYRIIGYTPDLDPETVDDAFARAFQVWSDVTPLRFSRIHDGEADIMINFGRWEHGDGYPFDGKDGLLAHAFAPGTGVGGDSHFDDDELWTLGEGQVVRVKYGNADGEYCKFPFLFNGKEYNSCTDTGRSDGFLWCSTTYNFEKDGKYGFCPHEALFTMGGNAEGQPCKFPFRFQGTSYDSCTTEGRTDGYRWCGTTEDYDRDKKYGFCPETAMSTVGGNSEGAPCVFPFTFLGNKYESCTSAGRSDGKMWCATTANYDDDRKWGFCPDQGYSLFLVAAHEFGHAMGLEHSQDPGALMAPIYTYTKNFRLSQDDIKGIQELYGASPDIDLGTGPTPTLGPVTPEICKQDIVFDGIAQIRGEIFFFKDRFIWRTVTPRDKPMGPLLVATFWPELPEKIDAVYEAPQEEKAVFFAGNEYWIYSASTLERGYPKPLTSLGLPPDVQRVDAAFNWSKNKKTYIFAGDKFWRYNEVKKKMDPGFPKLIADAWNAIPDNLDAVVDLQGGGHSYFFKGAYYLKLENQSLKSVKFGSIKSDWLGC
Type: biochemical
`CCCCOc1ccc(N2CCN(S(=O)(=O)C3(C(=O)NO)CCN(C(=O)CCC)CC3)CC2)cc1` [Example 290] was tested, and the IC50 was 59.5 nM.

Same assay, conditions: value in parenthesis; read-out: MMP-2 (IC-50)
In the case of `CCOCCCc1ccc(N2CCN(S(=O)(=O)C3(C(=O)NO)CCN(CCOC)CC3)CC2)cc1` [Example 179], the IC50 is reported as 1.02 nM.
`COCCCc1ccc(N2CCN(S(=O)(=O)C3(C(=O)NO)CCN(CCOC)CC3)CC2)cc1` [Example 180] gave an IC50 of 2.14 nM.
Molecule `COCCN1CCC(C(=O)NO)(S(=O)(=O)N2CCN(c3ccc(CC4CCCCC4)cc3)CC2)CC1` [Example 181] has an IC50 of 10.2 nM.
`COCCN1CCC(C(=O)NO)(S(=O)(=O)N2CCN(c3ccc(CCC4CCCC4)cc3)CC2)CC1` [Example 182] gave an IC50 of 0.12 nM.
In the case of `COCCN1CCC(C(=O)NO)(S(=O)(=O)N2CCN(c3ccc(CC4CCC4)cc3)CC2)CC1` [Example 183], the IC50 is reported as 2.31 nM.
`CCOc1ccc(N2CCN(S(=O)(=O)C3(C(=O)NO)CCN(CCOC)CC3)CC2)cc1F` [Example 184] was tested, and the IC50 was 0.65 nM.
`CCCOc1ccc(N2CCN(S(=O)(=O)C3(C(=O)NO)CCN(CCOC)CC3)CC2)cc1F` [Example 185] gave an IC50 of 0.59 nM.
With `COCCN1CCC(C(=O)NO)(S(=O)(=O)N2CCN(c3ccc(C#N)cc3)CC2)CC1` [Example 186] the IC50 was 3.14 nM.
`CCc1cnc(N2CCN(S(=O)(=O)C3(C(=O)NO)CCN(CCOC)CC3)CC2)nc1` [Example 187] showed an IC50 of 78 nM.
For `CCC(CC)Cc1ccc(N2CCN(S(=O)(=O)C3(C(=O)NO)CCN(CCOC)CC3)CC2)cc1` [Example 188], the IC50 was 12.4 nM.

— patent publication US20050209278A1, “Piperidinyl- and piperazinyl-sulfonylmethyl hydroxamic acids and their use as protease inhibitors” (priority 2002, published 2005)
